According to patent US11987572B2, “Therapeutic compounds and methods of use thereof” (REGENTS OF THE UNIVERSITY OF MINNESOTA, priority 2019, dated 2024):
Like-named read-outs stand apart in the source and are kept apart here. Each block holds one compound with its values, some of them ahead of it.

Assays:
Format in all cases: binding
BRD4-D1 = target: T1, BRD4-D1 (Homo sapiens, UniProt O60885); test: Fluorescence anisotropy competition with Fl-JQ1
T1 construct: His6 BRD4 D1 were expressed and purified as reported by A. K. Urick; His6; made in house

BRD4-D2 = target: T2, BRD4-D2 (Homo sapiens, UniProt O60885); test: Fluorescence anisotropy competition with Fl-JQ1
T2 construct: the second bromodomain of BRD4 (residues 333-460); host or cells: E. coli BL21 Star (DE3)

p38α = target: T3, p38α (Homo sapiens, UniProt Q16539); test: p38 competitive inhibition assay (KINOMEscan, Eurofins DiscoverX); details: mean of two biological replicates
T3 construct: phage display fusion; purchased Eurofins DiscoverX (Fremont California), KINOMEscan service

His9-BRD4 D1 = target: T4, His9-BRD4 D1 (Homo sapiens, UniProt O60885); test: AlphaScreen assay with His9-BRD4 D1; details: mean of two technical replicates
T4 construct: 7.5-60 nM for His9-tagged BRD4 D1; made in house; host or cells: E. coli BL21(DE3) with pRARE

[1] = mean and standard deviation of three independent trials, read-out: IC50 BRD4-D1
[2] = mean and SEM of three biological replicates, read-out: BRD4 D1 IC50 by FA

T3 sequence (Q16539 whole entry, the tested form may be a part): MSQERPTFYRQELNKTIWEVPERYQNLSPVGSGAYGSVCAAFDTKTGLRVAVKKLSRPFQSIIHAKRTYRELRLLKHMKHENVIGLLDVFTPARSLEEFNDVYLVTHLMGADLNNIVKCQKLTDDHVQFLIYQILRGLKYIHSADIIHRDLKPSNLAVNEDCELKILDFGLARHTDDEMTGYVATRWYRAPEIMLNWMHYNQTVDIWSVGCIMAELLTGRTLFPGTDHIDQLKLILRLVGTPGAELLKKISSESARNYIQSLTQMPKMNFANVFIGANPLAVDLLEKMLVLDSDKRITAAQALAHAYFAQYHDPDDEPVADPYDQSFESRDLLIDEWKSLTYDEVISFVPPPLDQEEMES

Structure (SMILES): Cc1cc(C)cc(Nc2cccc(-c3c(C)nnn3C3CCNCC3)n2)c1
IC50 (BRD4-D1; [2]): 4.5 ± 0.35 µM | Kd (p38α): > 25 nM

Structure (SMILES): Cc1cc(C)cc(Nc2nccc(-c3c(-c4ccc(F)cc4)nnn3C3CCNCC3)n2)c1
IC50 (BRD4-D1; [2]): > 100 µM | Kd (p38α): 120 ± 51 nM

Structure (SMILES): Cc1cc(C)cc(Oc2nccc(-c3c(C4CC4)nnn3C3CCN(C(=N)N)CC3)n2)c1
IC50 (BRD4-D1; [2]): 61 ± 8.1 µM

Structure (SMILES): Cc1cc(C)cc(Nc2cccc(-c3c(C)nnn3C3CCN(C(=N)N)CC3)n2)c1
IC50 (BRD4-D1; [2]): 4.5 ± 0.35 µM

Structure (SMILES): Cc1ccc(-c2ncn(C3CCNCC3)c2-c2ccnc(Nc3cc(C)cc(C)c3)n2)cc1
IC50 (BRD4-D1; [2]): 1.2 ± 0.2 µM | IC50 (His9-BRD4 D1): 1100 nM

Structure (SMILES): Cc1cc(C)cc(Nc2nccc(-c3c(-c4ccc(Cl)cc4)ncn3C3CCN(C(=N)N)CC3)n2)c1
IC50 (BRD4-D1; [2]): 1.6 µM | IC50 (His9-BRD4 D1): 1400 nM

Structure (SMILES): Cc1cc(C)cc(Nc2nccc(-c3c(-c4ccccc4)ncn3C3CCNCC3)n2)c1
IC50 (BRD4-D1; [2]): 4.5 ± 0.2 µM | IC50 (His9-BRD4 D1): 2600 nM

Structure (SMILES): Cc1ccc(Nc2nccc(-c3c(-c4ccc(F)cc4)ncn3C3CCNCC3)n2)cc1C
IC50 (BRD4-D1; [2]): 1.3 ± 0.2 µM

Structure (SMILES): Fc1ccc(-c2ncn(C3CCNCC3)c2-c2ccnc(Oc3cc(F)cc(F)c3)n2)cc1
IC50 (BRD4-D1; [2]): > 250 µM

Structure (SMILES): Cc1cc(C)cc(Nc2nccc(-c3c(-c4ccc(C(F)(F)F)cc4)ncn3C3CCN(CCN(C)C)CC3)n2)c1
IC50 (BRD4-D1; [2]): 0.15 ± 0.03 µM | IC50 (His9-BRD4 D1): 200 nM

Structure (SMILES): CC(=O)NCCN1CCC(n2cnc(-c3ccc(C(F)(F)F)cc3)c2-c2ccnc(Nc3cc(C)cc(C)c3)n2)CC1
IC50 (BRD4-D1; [2]): 0.42 ± 0.01 µM | IC50 (His9-BRD4 D1): 1500 nM

Structure (SMILES): Cc1cc(C)cc(Oc2cccc(-c3c(-c4ccc(C(F)(F)F)cc4)ncn3C3CCN(CCN)CC3)n2)c1
IC50 (BRD4-D1; [2]): 1.1 ± 0.01 µM | IC50 (His9-BRD4 D1): 1300 nM | Kd (p38α): > 30000 nM

Structure (SMILES): Cc1cc(C)cc(Oc2cccc(-c3c(C)nnn3C3CCN(C(=N)N)CC3)c2)c1 [drawing 180]
IC50 (BRD4-D1; [1]): 12 ± 1.1 µM

Structure (SMILES): Cc1cc(C)cc(Oc2cccc(-c3c(C)nnn3C3CCN(C(=N)N)CC3)n2)c1 [drawing 181]
IC50 (BRD4-D1; [1]): 3.6 ± 0.05 µM

Structure (SMILES): Cc1cc(C)cc(Oc2cc(-c3c(C)nnn3C3CCN(C(=N)N)CC3)ccn2)c1 [drawing 182]
IC50 (BRD4-D1; [1]): 97 ± 2.6 µM

Structure (SMILES): Cc1cc(C)cc(Oc2ccnc(-c3c(C)nnn3C3CCN(C(=N)N)CC3)c2)c1 [drawing 184]
IC50 (BRD4-D1; [1]): > 100 µM

Structure (SMILES): Cc1cc(Oc2cccc(-c3c(C)nnn3C3CCNCC3)n2)cc(C2CCCC2)c1 [drawing 189]
IC50 (BRD4-D1; [1]): 4.44 µM | IC50 (BRD4-D2): 7.35 µM

Structure (SMILES): CCCCc1cc(CCCC)cc(Oc2cccc(-c3c(C)nnn3C3CCNCC3)n2)c1 [drawing 195]
IC50 (BRD4-D1; [1]): 8.61 µM | IC50 (BRD4-D2): 27.7 µM

Structure (SMILES): Cc1nnn(C2CCNCC2)c1-c1cccc(Oc2cc(C3CCCCC3)cc(C3CCCCC3)c2)n1 [drawing 197]
IC50 (BRD4-D1; [1]): 62.6 µM

Structure (SMILES): Cc1nnn(C2CCNCC2)c1-c1cccc(Oc2cc(C(F)(F)F)cc(C(F)(F)F)c2)n1 [drawing 199]
IC50 (BRD4-D2): 45.6 µM

Structure (SMILES): Cc1cc(C)cc(Oc2cccc(-c3c(C)nnn3C3CCN(C(=N)N)CC3)c2)c1 [drawing 223]
IC50 (BRD4-D1; [2]): 12 ± 1.1 µM

Structure (SMILES): Cc1cc(C)cc(Oc2cccc(-c3c(C)nnn3C3CCN(C(=N)N)CC3)n2)c1 [drawing 224]
IC50 (BRD4-D1; [2]): 3.6 ± 0.05 µM

Structure (SMILES): Cc1cc(C)cc(Oc2cc(-c3c(C)nnn3C3CCN(C(=N)N)CC3)ccn2)c1 [drawing 225]
IC50 (BRD4-D1; [2]): 97 ± 2.6 µM

Structure (SMILES): Cc1cc(C)cc(Oc2ccnc(-c3c(C)nnn3C3CCN(C(=N)N)CC3)c2)c1 [drawing 227]
IC50 (BRD4-D1; [2]): > 100 µM

Structure (SMILES): Cc1cc(Oc2cccc(-c3c(C)nnn3C3CCNCC3)n2)cc(C2CCCC2)c1 [drawing 253]
IC50 (BRD4-D1; [2]): 4.44 µM

Structure (SMILES): CCCCc1cc(CCCC)cc(Oc2cccc(-c3c(C)nnn3C3CCNCC3)n2)c1 [drawing 259]
IC50 (BRD4-D1; [2]): 8.61 µM | IC50 (His9-BRD4 D1): 27700 nM

Structure (SMILES): Cc1nnn(C2CCNCC2)c1-c1cccc(Oc2cc(C3CCCCC3)cc(C3CCCCC3)c2)n1 [drawing 261]
IC50 (BRD4-D1; [2]): 62.6 µM

Structure (SMILES): Cc1nnn(C2CCNCC2)c1-c1cccc(Oc2cc(C(F)(F)F)cc(C(F)(F)F)c2)n1 [drawing 263]
IC50 (His9-BRD4 D1): 45600 nM

Second part, the compound after the results:

IC50 (BRD4-D1; [1]): 3.01 µM | IC50 (BRD4-D2): 5.87 µM
Structure (SMILES): Cc1cc(C)cc(Oc2nccc(-c3c(C)nnn3C3CCNCC3)n2)c1

IC50 (BRD4-D1; [2]): > 100 µM
Structure (SMILES): Cc1cc(C)cc(Oc2nccc(-c3c(C(C)C)nnn3C3CCNCC3)n2)c1

IC50 (BRD4-D1; [2]): > 100 µM
Structure (SMILES): CCCc1nnn(C2CCNCC2)c1-c1ccnc(Oc2cc(C)cc(C)c2)n1

IC50 (BRD4-D1; [2]): > 100 µM
Structure (SMILES): Cc1cc(C)cc(Oc2cncc(-c3c(C)nnn3C3CCNCC3)c2)c1

IC50 (BRD4-D1; [2]): 97 ± 2.6 µM
Structure (SMILES): Cc1cc(C)cc(Oc2cc(-c3c(C)nnn3C3CCNCC3)ccn2)c1

IC50 (BRD4-D1; [2]): > 100 µM
Structure (SMILES): Cc1cc(C)cc(Oc2ccnc(-c3c(C)nnn3C3CCNCC3)c2)c1

IC50 (His9-BRD4 D1): 160000 nM
Structure (SMILES): Cc1cc(C)cc(Nc2nccc(-c3c(CO)nnn3C3CCNCC3)n2)c1

IC50 (BRD4-D1; [1]): 9.7 ± 1.8 µM
Structure (SMILES): Cc1cc(C)cc(Oc2nccc(-c3c(C)nnn3C3CCN(C(=N)N)CC3)n2)c1 [drawing 179]

IC50 (BRD4-D2): 4.76 µM
Structure (SMILES): Cc1cc(Oc2cccc(-c3c(C)nnn3C3CCNCC3)n2)cc(C(C)C)c1 [drawing 187]

IC50 (BRD4-D1; [1]): 3.21 ± 0.3 µM | IC50 (BRD4-D2): 7.35 µM
Structure (SMILES): CCC(C)c1cc(C)cc(Oc2cccc(-c3c(C)nnn3C3CCNCC3)n2)c1 (centres unmarked) [drawing 188]

IC50 (BRD4-D1; [2]): 9.7 ± 1.8 µM
Structure (SMILES): Cc1cc(C)cc(Oc2nccc(-c3c(C)nnn3C3CCN(C(=N)N)CC3)n2)c1 [drawing 222]

IC50 (His9-BRD4 D1): 4760 nM
Structure (SMILES): Cc1cc(Oc2cccc(-c3c(C)nnn3C3CCNCC3)n2)cc(C(C)C)c1 [drawing 251]

IC50 (BRD4-D1; [2]): 3.21 ± 0.3 µM | IC50 (His9-BRD4 D1): 7350 nM
Structure (SMILES): CCC(C)c1cc(C)cc(Oc2cccc(-c3c(C)nnn3C3CCNCC3)n2)c1 (centres unmarked) [drawing 252]
